Source: publication PMC6843786, “Temporin-SHa and Its Analogs as Potential Candidates for the Treatment of Helicobacter pylori” (Biomolecules, 2019)
Read-outs that look alike come from different tables or passages of the source. Non-standard residues stand in square brackets, D forms with d. Residues, ends and D or L forms follow the SMILES beside them.

Legend:
H. pylori (ATCC 43504) [1] = details: ATCC 43504, 24 h
Text: H. pylori used in this study were either the reference strain obtained from the American Type Culture Collection (ATCC 43504) or clinical strains received frozen from our collaborator Josette Raymond from Hospital Cochin, Paris. Strains were obtained from patients who underwent a gastroendoscopy performed for various gastro-intestinal disorders according to the recommendations of Haute Autorité de Santé (HAS). During the endoscopy, biopsy samples were taken from antrum and corpus. Samples were then crushed, and the material was used for bacterial culture and molecular methods. An antibiogram was performed and strains were then frozen at -80 °C in a broth with 10% glycerol. Bacteria were cultured as previously described. Briefly, H. pylori (ATCC 43504) was cultured in brain heart infusion (BHI) and incubated at 37 °C for 16 h in microaerophilic condition in BD GasPak EZ using BD GasPak EZ CampyPak container system sachets (BD Biosciences, Le Pont-de-Claix, France). For clinical strains, a sample from the frozen bacteria was streaked on Blood Agar (Base) (Sigma-Aldrich, Illkirch-Graffenstaden, France) supplemented with 5% horse defibrinated blood (Fisher Scientific, Les Ulis, France) and 2% isovitale-X (Fisher Scientific, Illkirch-Graffenstaden, France). The petri dishes were then incubated at 37 °C for 4–7 days in microaerophilic condition. Then, a colony is transferred to 3 mL Mueller Hinton (MH) broth supplemented with 10% fetal bovine serum (FBS) and 2% isovitale-X. The cultures were then incubated for 4–7 days until the bacteria grow before further experiments.
(§1) Briefly, after the growth of H. pylori in liquid culture the optical density (OD) of the bacterial suspensions were read at 600 nm and adjusted to one. Stock solutions of the peptides at 1 mM were prepared in sterile water. Bacteria were diluted in medium to reach bacterial density around 10^5 bacteria/mL. One-hundred microliters per well of bacterial suspension were then added into sterile polypropylene 96-well microplates (Greiner BioOne, Paris, France) and exposed to increasing concentrations of peptides (from zero to 100 µM, 1:2 serial dilution). […] Plates were incubated at 37 °C for 24 h for H. pylori (ATCC 43504) and for 4–7 days for the clinical strains. H. pylori was tested in microaerophilic conditions generated using micro-anaerobic BD GasPak system. At the end of the incubation, OD600nm was measured using microplate reader (Synergy Mx, Biotek, Colmar, France). The MIC was defined as the lowest concentration of drug that inhibited visible growth of the organism. Experiments were conducted in independent triplicate (n = 3).

N87 cells = experiment: In vitro toxicity assay using human gastric cells (resazurin); assay type: cell-based; details: for IC50: 48 h
Experimental: [26] Human gastric cells N87 (ATCC CRL-5822) were cultured in RPMI-1640 medium supplemented with 10% fetal calf serum (FCS), 1% L-glutamine and 1% antibiotics (all from Invitrogen, Carlsbad, CA, USA) and were routinely seeded onto 25 cm^2 flasks maintained in a 5% CO2 incubator at 37 °C. For the toxicity assay, cells grown on 25 cm^2 flasks were detached using trypsin–EDTA solution (from Thermofisher), counted using Mallasez counting chamber and seeded into 96-well cell culture plates (Greiner Bio-one) at approximately 10^4 cells per well. The cells were left to grow for 48–72 h at 37 °C in a 5% CO2 incubator until they reached confluence. Plates were then aspirated and increasing concentrations of peptides were added to the cells for 48 h at 37 °C in a 5% CO2 incubator, volume of water corresponding to the volume of peptides being used as negative control. At the end of the incubation, wells were aspirated, and cell viability was evaluated using resazurin-based in vitro toxicity assay kit (Sigma-Aldrich) following manufacturer’s instructions. Briefly, resazurin stock solution was diluted 1:10 in sterile PBS containing calcium and magnesium (PBS^++, pH 7.4) and empty wells were filled with 100 µL of the diluted solution. After 4 h incubation at 37 °C, fluorescence intensity was measured using microplate reader (Synergy Mx, Biotek) with an excitation wavelength of 530 nm and an emission wavelength of 590 nm. The fluorescence values were normalized by the controls and expressed as percent viability.

[2] = tested on: total lipids extracted from H. pylori (ATCC 43504); experiment: Lipid insertion assay (lipid monolayer, critical pressure of insertion); set-up: species or system biophysical; details: peptide 1 µM, PBS pH 7.4, from the line fits of Figure 4
Experimental: Peptide-lipid interaction was measured using reconstituted lipid monolayer at the air-water interface as previously described. Total lipids were extracted from overnight cultures of H. pylori (ATCC 43504) using Folch extraction procedure as previously described. Extracted total lipids were dried, resolubilized in chloroform:methanol (2:1, v/v) and stored at -20 °C under nitrogen. For peptide-lipid interaction assay, total lipid extract was spread using a 50 μL Hamilton's syringe at the surface of 800 μL of sterile PBS creating a lipid monolayer at the air-water interface. Lipids were added until the surface pressure reached the desired value. […] The variation of the surface pressure caused by peptide injection was then continuously monitored using a fully automated microtensiometer (μTROUGH SX, Kibron Inc., Helsinki, Finland) until reaching equilibrium (maximal surface pressure increase being usually obtained after 15-25 min). […] Variation of surface pressure was plotted as a function of initial surface pressure and the critical pressure of insertion of each peptide into H. pylori lipids was calculated as the theoretical value of initial pressure of lipid monolayer not permissive to peptide insertion, i.e., giving a variation of pressure equal to 0 mN/m.

H. pylori (ATCC 43504) [3] = tested on: H. pylori (ATCC 43504)
Experimental: as §1
(§2) It is also rich with mucus to protect it from the aggressive acidity. For this reason, the impact of mucins and pepsin on the activity of the peptides was investigated. The impact of the gastric mucins on peptide activity was evaluated using a combination of commercial porcine stomach mucins MUC2 and MUC3 (Sigma–Aldrich) at a final concentration of 1 mg/mL sterilized using 0.2 µm filter. This concentration was used based on the estimated concentration of mucins present in the mucus in vivo [27]. The effect of mucins on peptides activity was evaluated by MIC and by time killing assay as explained below. The resistance of the peptides to pepsin was tested as previously described with some changes. […] This concentration was used since it corresponds the pepsin concentration in the stomach (0.5–1 mg/mL).

H. pylori (ATCC 43504) [4] = experiment: MIC after digestion by pepsin (resistance to pepsin); details: ATCC 43504, 4 h, pH 2
Experimental: as §1, §2

H. pylori (ATCC 43504) [5] = tested on: H. pylori (ATCC 43504); remark: listed apart in the source
Experimental: The bactericidal activity of peptides was assessed using the time kill assay as previously described with some modifications. Briefly, overnight liquid culture of H. pylori (ATCC 43504) was prepared and an optical density measurement (OD600nm) was taken to provide an estimation of cell numbers in the culture. Bacterial suspension was then centrifuged at 3000 rpm for 5 min and the bacterial pellet was then resuspended in sterile PBS pH6 at approximatively 10^7 CFU/mL. The pH of PBS was changed from 7 to 6 with HCl to mimic the micro-environment surrounding H. pylori in the stomach. Indeed, although the lumen of the stomach is around 1–2, H. pylori is able, through the activity of its urease, to create a local micro-environment around it of pH 6 [31]. In addition to PBS pH 6, the time kill assay was also performed in PBS pH 6 containing a mixture of porcine stomach mucins MUC2 and MUC3 (at 1 mg/mL, final concentration) or in the presence of human gastric cells N87 producing human mucus. In that particular case, N87 cells were seeded onto 96-wells plates and left to grow for 48–72 h until they reached confluence. At that time, wells were aspirated and bacterial suspension in PBS pH 6 were added to the wells. In all cases, resuspended bacteria (200 µL) were treated with peptides or the conventional antibiotic amoxicillin at a final concentration corresponding to five times their MIC. Bacteria were then incubated in micro-aerobic conditions at 37 °C using GasPak units. […] The petri dishes were then incubated 16 h at 37 °C in microaerophilic conditions before counting of growing colonies. The number of surviving bacteria was calculated using the number of observed colonies and the dilution factor. The experiment was done in triplicate.

Structure (SMILES) | MIC on H. pylori (ATCC 43504) (H. pylori (ATCC 43504) [1]) | increase in toxicity to human gastric cells compared to temporin-SHa (N87 cells) | IC50 (N87 cells) | critical pressure of insertion (CPI) [2] | MIC in the Presence of mucins (H. pylori (ATCC 43504) [3]; ATCC 43504, 24 h) | increase of MIC in the presence of mucins (H. pylori (ATCC 43504) [3]; MUC2 and MUC3 at 1 mg/mL versus no mucins) | MIC after Digestion by Pepsin (H. pylori (ATCC 43504) [4]) | killing (H. pylori (ATCC 43504) [5]; 20 min, PBS pH 6, 5-times MIC) | killing (H. pylori (ATCC 43504) [5]; 3 h (180 min), PBS pH 6, 5-times MIC) | killing (H. pylori (ATCC 43504) [5]; 3 h, absence or presence of mucus, 5-times MIC) | killing (H. pylori (ATCC 43504) [5]; 9 h (540 min), 5-times MIC)
CC[C@H](C)[C@H](NC(=O)CNC(=O)[C@H](CO)NC(=O)[C@H](CC(C)C)NC(=O)[C@@H](N)Cc1ccccc1)C(=O)N[C@H](C(=O)N[C@H](C)C(=O)N[C@@H](CCSC)C(=O)N[C@@H](CC(C)C)C(=O)NCC(=O)N[C@@H](CCCCN)C(=O)N[C@@H](CC(C)C)C(=O)N[C@@H](Cc1ccccc1)C(N)=O)C(C)C [NST3, H-Phe^1-Leu^2-Ser^3-Gly^4-Ile^5-Val^6-D-Ala^7-Met^8-Leu^9-Gly^10-Lys^11-Leu^12-Phe^13-NH2] (H-FLSGIV[dA]MLGKLF-NH2) | 3.12 µM | around 3 fold | 520 ± 148 µM | 35.73 mN/m | 6.25 µM | two | >50 µM | – | – | – | –
CC[C@H](C)[C@H](NC(=O)[C@@H](C)NC(=O)[C@H](CO)NC(=O)[C@H](CC(C)C)NC(=O)[C@@H](N)Cc1ccccc1)C(=O)N[C@H](C(=O)N[C@H](C)C(=O)N[C@@H](CCSC)C(=O)N[C@@H](CC(C)C)C(=O)NCC(=O)N[C@@H](CCCCN)C(=O)N[C@@H](CC(C)C)C(=O)N[C@@H](Cc1ccccc1)C(N)=O)C(C)C [NST4, H-Phe^1-Leu^2-Ser^3-D-Ala^4-Ile^5-Val^6-D-Ala^7-Met^8-Leu^9-Gly^10-Lys^11-Leu^12-Phe^13-NH2] (H-FLS[dA]IV[dA]MLGKLF-NH2) | 6.25 to 12.5 µM | around 5 fold | 306 ± 48.4 µM | 39.12 mN/m | – | – | – | – | – | – | –
CC[C@H](C)[C@H](NC(=O)CNC(=O)[C@H](CO)NC(=O)[C@H](CC(C)C)NC(=O)[C@@H](N)Cc1ccccc1)C(=O)N[C@H](C(=O)N[C@H](C)C(=O)N[C@@H](CCSC)C(=O)N[C@@H](CC(C)C)C(=O)N[C@H](C)C(=O)N[C@@H](CCCCN)C(=O)N[C@@H](CC(C)C)C(=O)N[C@@H](Cc1ccccc1)C(N)=O)C(C)C [NST6, H-Phe^1-Leu^2-Ser^3-Gly^4-Ile^5-Val^6-D-Ala^7-Met^8-Leu^9-D-Ala^10-Lys^11-Leu^12-Phe^13-NH2] (H-FLSGIV[dA]ML[dA]KLF-NH2) | 3.12 µM | around 15 fold | 104 ± 9.3 µM | 44.43 mN/m | – | – | – | – | – | – | –
CC[C@H](C)[C@H](NC(=O)[C@@H](C)NC(=O)[C@H](CO)NC(=O)[C@H](CC(C)C)NC(=O)[C@@H](N)Cc1ccccc1)C(=O)N[C@H](C(=O)NCC(=O)N[C@@H](CCSC)C(=O)N[C@@H](CC(C)C)C(=O)N[C@H](C)C(=O)N[C@@H](CCCCN)C(=O)N[C@@H](CC(C)C)C(=O)N[C@@H](Cc1ccccc1)C(N)=O)C(C)C [NST7, H-Phe^1-Leu^2-Ser^3-D-Ala^4-Ile^5-Val^6-Gly^7-Met^8-Leu^9-D-Ala^10-Lys^11-Leu^12-Phe^13-NH2] (H-FLS[dA]IVGML[dA]KLF-NH2) | – | around 15 fold | 84.7 ± 9 µM | 33 mN/m | – | – | – | – | – | – | –
CC1(C)S[C@@H]2[C@H](NC(=O)[C@H](N)c3ccc(O)cc3)C(=O)N2[C@H]1C(=O)O [amoxicillin, reference compound] | – | – | – | – | – | – | – | 9% | 34% | 31.5–55% | 75%
